Laboratory results from ChEMBL document CHEMBL5150068, “Structure-Based Design of Tropane Derivatives as a Novel Series of CCR5 Antagonists with Broad-Spectrum Anti-HIV-1 Activities and Improved Oral Bioavailability” (J Med Chem, 2022).

How the values were obtained:
Cytochrome P450 3A4 [1] = target: T1, Cytochrome P450 3A4 (Homo sapiens, UniProt P08684); assay: Inhibition of CYP3A4 (unknown origin) using testosterone as substrate; format: ADME
Cytochrome P450 2C19 = Cytochrome P450 2C19 (Homo sapiens, UniProt P33261); assay: Inhibition of CYP2C19 (unknown origin); format: ADME
Chain of Cytochrome P450 2C19 (P33261 whole entry): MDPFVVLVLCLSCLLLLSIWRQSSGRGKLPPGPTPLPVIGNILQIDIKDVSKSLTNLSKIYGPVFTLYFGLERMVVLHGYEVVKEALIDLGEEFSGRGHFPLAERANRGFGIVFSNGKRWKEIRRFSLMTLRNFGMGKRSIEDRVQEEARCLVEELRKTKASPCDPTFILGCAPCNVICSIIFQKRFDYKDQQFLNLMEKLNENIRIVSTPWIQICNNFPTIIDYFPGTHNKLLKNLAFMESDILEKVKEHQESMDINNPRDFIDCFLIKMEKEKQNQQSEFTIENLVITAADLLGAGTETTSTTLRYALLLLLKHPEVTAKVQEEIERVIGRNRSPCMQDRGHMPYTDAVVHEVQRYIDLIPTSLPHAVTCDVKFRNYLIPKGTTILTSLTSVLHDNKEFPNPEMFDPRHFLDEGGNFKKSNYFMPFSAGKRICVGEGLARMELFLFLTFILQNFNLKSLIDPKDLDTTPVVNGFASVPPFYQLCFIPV

Cytochrome P450 2D6 = Cytochrome P450 2D6 (Homo sapiens, UniProt P10635); assay: Inhibition of CYP2D6 (unknown origin); format: ADME
Chain of Cytochrome P450 2D6 (P10635 whole entry): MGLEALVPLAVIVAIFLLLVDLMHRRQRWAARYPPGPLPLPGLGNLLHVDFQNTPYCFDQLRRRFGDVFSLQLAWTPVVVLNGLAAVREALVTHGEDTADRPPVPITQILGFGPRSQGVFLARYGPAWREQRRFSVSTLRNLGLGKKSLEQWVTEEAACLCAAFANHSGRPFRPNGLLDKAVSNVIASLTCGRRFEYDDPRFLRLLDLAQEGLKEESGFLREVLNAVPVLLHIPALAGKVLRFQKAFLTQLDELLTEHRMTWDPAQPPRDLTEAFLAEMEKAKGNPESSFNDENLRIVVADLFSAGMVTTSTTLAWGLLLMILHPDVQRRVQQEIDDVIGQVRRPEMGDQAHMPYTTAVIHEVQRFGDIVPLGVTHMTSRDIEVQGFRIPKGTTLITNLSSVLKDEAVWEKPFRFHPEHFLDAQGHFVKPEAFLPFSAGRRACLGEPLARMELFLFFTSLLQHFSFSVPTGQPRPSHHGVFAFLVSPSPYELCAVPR

in vitro [2] = conditions: human, PM1 cells
Description: Therapeutic index, ratio of CC50 for human PM1 cells to EC50 for antiviral activity against HIV-1 YU-2

[3] = AUC (0 to infinitive) in Sprague-Dawley rat at 10 mg/kg, po measured upto 24 hrs; format: ADME, organism-based; design: dose 10 mg/kg, time < 24 hrs, route po; conditions: Sprague-Dawley, in vivo
[4] = test system: Human immunodeficiency virus 1; assay: Antiviral activity against HIV-1 Ba-L infected in human PM1 cells measured after 48 hrs incubation by ELISA based p24 antigen assay; format: functional, organism-based; conditions: Human immunodeficiency virus 1, Ba-L, PM1, 48 h
[5] = test system: Human immunodeficiency virus 1; assay: Antiviral activity against HIV-1 KIZ006 clinical isolate infected in human PBMC measured after 48 hrs incubation by luciferase based analysis; format: functional, organism-based; conditions: Human immunodeficiency virus 1, KIZ006, PBMC
[6] = test system: Human immunodeficiency virus 1; assay: Antiviral activity against HIV-1 IIIB infected in human TZM-bl cells measured after 48 hrs incubation by luciferase based analysis; format: functional, organism-based; conditions: Human immunodeficiency virus 1, IIIB
[7] = Cytotoxicity against human HOS-CD4-CCR5 cells incubated for 48 hrs by MTT assay; format: toxicity, cell-based
[8] = test system: Human immunodeficiency virus 1; assay: Antiviral activity against HIV-1 KM018 clinical isolate infected in human PBMC measured after 48 hrs incubation by luciferase based analysis; format: functional, organism-based; conditions: Human immunodeficiency virus 1, KM018, PBMC
[9] = Tmax in Sprague-Dawley rat at 10 mg/kg, po measured upto 24 hrs; format: ADME, organism-based; conditions: in vivo
[10] = Cytotoxicity against human TZM-bl cells incubated for 48 hrs by MTT assay; format: toxicity, cell-based
in vitro [11] = conditions: human, PM1 cells; remark: listed apart in the source
Description: Therapeutic index, ratio of CC50 for human PM1 cells to EC50 for antiviral activity against HIV-1 SF162

[12] = Cytotoxicity against human PM1 cells incubated for 48 hrs by MTT assay; format: toxicity, cell-based
[13] = AUC (0 to infinitive) in Sprague-Dawley rat at 2 mg/kg, iv measured upto 24 hrs; format: ADME, organism-based; design: dose 2 mg/kg, time < 24 hrs, route iv; conditions: Sprague-Dawley, in vivo
[14] = AUC (0 to last) in Sprague-Dawley rat at 2 mg/kg, iv measured upto 24 hrs; format: ADME, organism-based; design: dose 2 mg/kg, time < 24 hrs, route iv; conditions: Sprague-Dawley, in vivo
in vitro [15] = conditions: human, PBMC
Description: Therapeutic index, ratio of CC50 for human PBMC to EC50 for antiviral activity against HIV-1 KM018 clinical isolate

Cytochrome P450 2C9 = Cytochrome P450 2C9 (Homo sapiens, UniProt P11712); assay: Inhibition of CYP2C9 (unknown origin); format: ADME
Chain of Cytochrome P450 2C9 (P11712 whole entry): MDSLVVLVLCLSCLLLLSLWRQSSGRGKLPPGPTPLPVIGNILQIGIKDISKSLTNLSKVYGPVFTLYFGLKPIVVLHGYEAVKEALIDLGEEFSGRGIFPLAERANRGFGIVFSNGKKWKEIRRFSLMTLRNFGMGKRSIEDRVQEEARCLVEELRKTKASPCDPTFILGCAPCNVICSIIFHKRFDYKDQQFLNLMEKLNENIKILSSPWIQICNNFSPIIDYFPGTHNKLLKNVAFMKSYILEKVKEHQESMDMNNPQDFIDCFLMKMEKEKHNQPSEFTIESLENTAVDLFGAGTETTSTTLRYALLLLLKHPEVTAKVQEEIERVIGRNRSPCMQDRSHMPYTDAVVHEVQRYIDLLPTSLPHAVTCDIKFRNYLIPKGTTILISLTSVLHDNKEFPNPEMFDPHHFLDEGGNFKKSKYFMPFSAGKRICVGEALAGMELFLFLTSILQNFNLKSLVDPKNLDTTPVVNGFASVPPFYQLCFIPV

[16] = Half life in Sprague-Dawley rat at 10 mg/kg, po measured upto 24 hrs; format: ADME, organism-based; conditions: in vivo
[17] = test system: Human immunodeficiency virus 1; assay: Antiviral activity against HIV-1 YU-2 (G140S/Q148H) infected in human TZM-bl cells measured after 48 hrs incubation by luciferase based analysis; format: functional, organism-based; conditions: Human immunodeficiency virus 1, YU-2 (G140S/Q148H)
[18] = Oral bioavailability in Sprague-Dawley rat at 10 mg/kg measured upto 24 hrs; format: ADME, organism-based; conditions: Sprague-Dawley, in vivo
[19] = test system: Human immunodeficiency virus 1; assay: Antiviral activity against HIV-1 YU-2 infected in human TZM-bl cells measured after 48 hrs incubation by luciferase based analysis; format: functional, organism-based; conditions: Human immunodeficiency virus 1, YU-2, TZM-bl, 48 h
[20] = AUC (0 to last) in Sprague-Dawley rat at 10 mg/kg, po measured upto 24 hrs; format: ADME, organism-based; design: dose 10 mg/kg, time < 24 hrs, route po; conditions: in vivo
[21] = target: C-C chemokine receptor type 5 (Homo sapiens, UniProt P51681); assay: Antagonist activity at CCR5 (unknown origin) expressed in HEK293 cells co-expressing Galpha16 assessed as intracellular calcium change incubated for 15 mins by Fluo-4 AM calcium flux assay; format: functional, cell-based
Chain of C-C chemokine receptor type 5 (P51681 whole entry): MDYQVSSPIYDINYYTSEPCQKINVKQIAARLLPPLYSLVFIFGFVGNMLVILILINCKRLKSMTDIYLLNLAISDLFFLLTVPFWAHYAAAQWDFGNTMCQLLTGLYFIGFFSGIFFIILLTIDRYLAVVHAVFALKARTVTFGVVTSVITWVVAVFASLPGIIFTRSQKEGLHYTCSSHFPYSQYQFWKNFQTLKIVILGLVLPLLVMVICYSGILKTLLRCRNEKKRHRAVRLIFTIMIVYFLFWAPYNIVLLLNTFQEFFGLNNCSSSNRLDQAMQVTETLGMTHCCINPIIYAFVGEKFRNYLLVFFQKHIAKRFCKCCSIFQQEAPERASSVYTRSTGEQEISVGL

[22] = Half life in Sprague-Dawley rat at 2 mg/kg, iv measured upto 24 hrs; format: ADME, organism-based; conditions: in vivo, iv, 2 mg/kg, 24 h
Cytochrome P450 3A4 [23] = target: T1, Cytochrome P450 3A4; assay: Inhibition of CYP3A4 (unknown origin) using midazolam as substrate; format: ADME
[24] = Cmax in Sprague-Dawley rat at 10 mg/kg, po measured upto 24 hrs; format: ADME, organism-based; design: time < 24 hrs, dose 10 mg/kg, route po; conditions: in vivo
[25] = Cytotoxicity against human PBMC cells incubated for 48 hrs by MTT assay; format: toxicity, cell-based
[26] = test system: Human immunodeficiency virus 1; assay: Antiviral activity against HIV-1 Ba-L infected in human TZM-bl cells measured after 48 hrs incubation by luciferase based analysis; format: functional, organism-based; conditions: Human immunodeficiency virus 1, Ba-L
[27] = MRT in Sprague-Dawley rat at 2 mg/kg, iv measured upto 24 hrs; format: ADME, organism-based; conditions: in vivo, iv, 2 mg/kg, 24 h
in vitro [28] = conditions: human, HOS-CD4-CCR5 cells
Description: Therapeutic index, ratio of CC50 for human HOS-CD4-CCR5 cells to EC50 for antiviral activity against HIV-1 Ba-L

[29] = test system: Human immunodeficiency virus 1; assay: Antiviral activity against HIV-1 SF162 infected in human TZM-bl cells measured after 48 hrs incubation by luciferase based analysis; format: functional, organism-based; conditions: Human immunodeficiency virus 1, SF162, TZM-bl
[30] = test system: Human immunodeficiency virus 1; assay: Antiviral activity against HIV-1 Ba-L infected in human HOS-CD4-CCR5 cells measured after 48 hrs incubation by ELISA based p24 antigen assay; format: functional, organism-based; conditions: Human immunodeficiency virus 1, Ba-L
in vitro [31] = conditions: human, PM1 cells; remark: listed apart in the source
Description: Therapeutic index, ratio of CC50 for human PM1 cells to EC50 for antiviral activity against HIV-1 Ba-L

in vitro [32] = conditions: human, TZM-bl cells
Description: Therapeutic index, ratio of CC50 for human TZM-bl cells to EC50 for antiviral activity against HIV-1 Ba-L

[33] = test system: Human immunodeficiency virus 1; assay: Antiviral activity against HIV-1 KIZ001 clinical isolate infected in human PBMC measured after 48 hrs incubation by luciferase based analysis; format: functional, organism-based; conditions: Human immunodeficiency virus 1, KIZ001, PBMC
[34] = MRT in Sprague-Dawley rat at 10 mg/kg, po measured upto 24 hrs; format: ADME, organism-based; conditions: in vivo
Cytochrome P450 1A2 = target: T2, Cytochrome P450 1A2 (Homo sapiens, UniProt P05177); assay: Inhibition of CYP1A2 (unknown origin); format: ADME
T2 sequence (P05177 whole entry): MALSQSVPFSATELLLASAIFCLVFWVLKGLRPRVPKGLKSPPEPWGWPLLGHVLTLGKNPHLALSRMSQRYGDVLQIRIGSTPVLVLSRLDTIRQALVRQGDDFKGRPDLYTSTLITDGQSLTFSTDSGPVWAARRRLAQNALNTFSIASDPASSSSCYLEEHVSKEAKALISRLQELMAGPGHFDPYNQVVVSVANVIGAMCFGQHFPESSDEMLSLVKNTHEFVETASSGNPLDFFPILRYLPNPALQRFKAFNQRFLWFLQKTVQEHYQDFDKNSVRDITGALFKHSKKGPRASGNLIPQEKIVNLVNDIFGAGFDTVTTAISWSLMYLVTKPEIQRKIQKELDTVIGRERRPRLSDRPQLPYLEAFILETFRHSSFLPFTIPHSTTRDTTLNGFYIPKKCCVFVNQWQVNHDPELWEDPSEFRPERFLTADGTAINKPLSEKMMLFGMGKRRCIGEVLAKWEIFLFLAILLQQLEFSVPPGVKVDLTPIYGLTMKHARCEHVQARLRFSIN

in vitro [35] = conditions: human, PBMC; remark: listed apart in the source
Description: Therapeutic index, ratio of CC50 for human PBMC to EC50 for antiviral activity against HIV-1 KIZ006 clinical isolate

in vitro [36] = conditions: human, PBMC; remark: listed apart in the source
Description: Therapeutic index, ratio of CC50 for human PBMC to EC50 for antiviral activity against HIV-1 KIZ001 clinical isolate

T1 sequence (P08684 whole entry): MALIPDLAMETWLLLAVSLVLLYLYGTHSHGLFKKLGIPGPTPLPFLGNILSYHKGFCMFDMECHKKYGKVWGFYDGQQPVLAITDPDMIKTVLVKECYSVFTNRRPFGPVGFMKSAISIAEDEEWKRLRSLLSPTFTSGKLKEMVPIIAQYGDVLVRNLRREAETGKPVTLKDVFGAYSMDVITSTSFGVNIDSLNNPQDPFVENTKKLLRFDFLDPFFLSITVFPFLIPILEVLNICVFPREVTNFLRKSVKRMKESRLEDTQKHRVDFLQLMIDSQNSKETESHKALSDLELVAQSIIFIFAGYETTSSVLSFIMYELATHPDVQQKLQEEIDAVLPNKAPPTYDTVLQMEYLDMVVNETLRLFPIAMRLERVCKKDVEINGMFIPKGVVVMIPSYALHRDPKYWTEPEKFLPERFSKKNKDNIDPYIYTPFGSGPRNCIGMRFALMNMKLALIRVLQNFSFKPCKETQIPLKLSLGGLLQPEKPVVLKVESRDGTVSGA

Cc1nc2c(n1[C@@H]1C[C@H]3CC[C@@H](C1)N3CC[C@H](NC(=O)C1CCC(F)(F)CC1)c1ccsc1)CCN(C(=O)C(C)C)C2
IC50 (Cytochrome P450 3A4 [1]): > 25000 nM
IC50 (Cytochrome P450 2C19): > 25000 nM
IC50 (Cytochrome P450 2D6): > 25000 nM
selectivity ratio (in vitro [2]): > 22900
AUC(0-inf) [3]: 283 ng·h/mL
EC50 [4]: 0.5 nM
EC50 [5]: 12.6 nM
EC50 [6]: > 1000 nM
CC50 at 48 h [7]: > 200000 nM
EC50 [8]: 32 nM
Tmax [9]: 2 h
CC50 at 48 h [10]: > 200000 nM
selectivity ratio (in vitro [11]): > 12500
CC50 at 48 h [12]: > 200000 nM
AUC(0-inf) [13]: 283 ng·h/mL
AUC(0-t) at 24 h [14]: 298 ng·h/mL
selectivity ratio (in vitro [15]): 2550
IC50 (Cytochrome P450 2C9): > 25000 nM
half-life [16]: 10.3 h
EC50 [17]: 4.34 nM
bioavailability [18]: 15.7%
EC50 [19]: 8.73 nM
AUC(0-t) at 24 h [20]: 283 ng·h/mL
IC50 [21]: 8.34 nM
t1/2 [22]: 1.6 h
IC50 (Cytochrome P450 3A4 [23]): > 25000 nM
Cmax [24]: 49.5 ng/mL
CC50 at 48 h [25]: 81700 nM
EC50 [26]: 11 nM
MRT [27]: 13.2 h
selectivity ratio (in vitro [28]): > 12800
EC50 [29]: 16 nM
EC50 [30]: 1.56 nM
selectivity ratio (in vitro [31]): > 40000
selectivity ratio (in vitro [32]): > 18200
EC50 [33]: 7.82 nM
MRT [34]: 13.2 h
IC50 (Cytochrome P450 1A2): > 25000 nM
selectivity ratio (in vitro [35]): 6480
selectivity ratio (in vitro [36]): 10400
